Source: patent US5482948A, “Pyridyl derivatives and pharmaceutical compositions comprising these compounds” (Dr. Karl Thomae GmbH, priority 1991, dated 1996)

Experiments:
[1] = target: T1, thromboxane synthetase (Homo sapiens, UniProt P24557); assay: Inhibitory effect on thromboxane synthetase (TXB2 formation in human platelet suspension); assay type: cell-based; conditions: 10 minutes at ambient temperature, then 14C-labelled arachidonic acid 10 minutes, read-out: Inhibition of thromboxane synthetase IC50
T1 construct: endogenous in cells; host or cells: human platelets (platelet-rich plasma passed through Sepharose 2B)
T1 sequence (P24557 1-533): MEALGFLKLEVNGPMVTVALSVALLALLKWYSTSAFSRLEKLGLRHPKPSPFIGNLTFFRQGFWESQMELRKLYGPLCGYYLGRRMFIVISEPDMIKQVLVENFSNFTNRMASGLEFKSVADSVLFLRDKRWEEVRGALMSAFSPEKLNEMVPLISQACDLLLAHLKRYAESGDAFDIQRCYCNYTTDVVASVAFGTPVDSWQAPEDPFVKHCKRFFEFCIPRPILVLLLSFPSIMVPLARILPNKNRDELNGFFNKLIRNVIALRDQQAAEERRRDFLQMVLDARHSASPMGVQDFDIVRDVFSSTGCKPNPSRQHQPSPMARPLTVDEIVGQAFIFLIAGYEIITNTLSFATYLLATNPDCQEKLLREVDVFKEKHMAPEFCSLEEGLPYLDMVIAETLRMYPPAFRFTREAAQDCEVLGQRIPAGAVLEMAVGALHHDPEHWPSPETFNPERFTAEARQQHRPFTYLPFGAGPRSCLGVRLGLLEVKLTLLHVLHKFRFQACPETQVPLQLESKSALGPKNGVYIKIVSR
Procedure: Determining the Inhibitory Effect on Thromboxane Synthetase
Venous human blood is anti-coagulated with 13 mM Na3 citrate and centrifuged for 10 minutes at 170×g. The supernatant platelet-rich plasma is passed through a Sepharose 2B column in order to remove the plasma proteins. Aliquots of the platelet suspension obtained are incubated with the test substance or with a solvent as control for 10 minutes at ambient temperature and after the addition of ^14 C-labelled arachidonic acid incubation is continued for a further 10 minutes. After this has been stopped with 50 μl of citric acid, extraction is carried out 3 times with 500 μl of ethyl acetate and the combined extracts are distilled off with nitrogen. The residue is taken up in ethyl acetate, placed on TLC film and separated with chloro-form:methanol:glacial acetic acid:water (90:8:1:0.8, v/v/v/v). The dried TLC films are placed on X-ray film for 3 days, the autoradiograms were developed and the active zones were marked on the film using the autoradiograms. After cutting out, the activity is measured in a scintillation counter and the inhibition of the formation of TXB2 is calculated. The IC50 is determined by linear interpolation.

[2] = target: T2, Thromboxane (Homo sapiens, UniProt P21731); assay: Thromboxane-antagonistic activity (displacement of 3H-labelled ligand on human platelets); assay type: binding; conditions: human platelet suspension, 60 minutes at ambient temperature
T2 construct: endogenous in cells; host or cells: human platelets (platelet-rich plasma passed through Sepharose 2B)
T2 sequence (P21731 1-343): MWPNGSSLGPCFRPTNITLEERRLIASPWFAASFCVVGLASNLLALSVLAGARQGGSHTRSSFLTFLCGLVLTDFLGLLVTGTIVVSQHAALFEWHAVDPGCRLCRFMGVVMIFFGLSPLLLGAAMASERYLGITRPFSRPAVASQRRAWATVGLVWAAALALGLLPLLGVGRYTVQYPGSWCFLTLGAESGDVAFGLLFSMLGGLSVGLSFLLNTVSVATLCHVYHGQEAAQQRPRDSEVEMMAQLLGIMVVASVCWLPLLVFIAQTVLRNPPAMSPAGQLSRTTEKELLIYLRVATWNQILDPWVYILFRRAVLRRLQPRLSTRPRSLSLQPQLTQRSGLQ
Procedure: Thromboxane-antagonistic Activity
Venous human blood is anti-coagulated with 13 mM Na3 citrate and centrifuged for 10 minutes at 170×g. The supernatant platelet-rich plasma is passed through a Sepharose 2B column in order to remove the plasma proteins. Aliquots of the platelet suspension obtained are incubated with the test substance, the ligand (^3 H-labelled) and a marker (^14 C-labelled) for 60 minutes at ambient temperature and then centrifuged for 20 seconds at 10,000×g. The supernatant is removed and the pellet is dissolved in NaOH. The ^3 H activity in the supernatant corresponds to the free ligand, ^14 C gives the concentration of the marker. ^3 H in the pellet corresponds to the bound ligand whilst ^14 C is used to correct for the ligand in the extracellular space. After the process has been repeated, the displacement curve is determined from the binding values for different concentrations of the test substance and the IC50 is determined.

[3] = test system: thrombocyte aggregation; assay: Antithrombotic activity: collagen-induced aggregation in platelet-rich plasma (Born and Cross); assay type: cell-based; conditions: Homo sapiens, 10 min; platelet-rich plasma from healthy volunteers; incubated 10 minutes at 37° C.; 50% change in optical density; read-out: Inhibition of collagen-induced aggregation EC50
Procedure: The thrombocyte aggregation is measured using the method of Born and Cross (J. Physiol. 170, 397 (1964)) in platelet-rich plasma taken from healthy volunteers. To inhibit coagulation, the blood is mixed with 3.14% strength sodium citrate in a ratio by volume of 1:10.
Collagen-induced Aggregation
The pattern of decrease in the optical density of the platelet suspension is photometrically measured and recorded after the addition of the aggregation-triggering substance. The rate of aggregation is concluded from the angle of inclination of the density curve. The point on the curve where there is greatest light transmittance is used to calculate the "optical density".
The quantity of collagen used is as little as possible but sufficient to produce an irreversible reaction curve. Standard commercial collagen produced by Hormonchemie of Munich is used. Before the addition of the collagen the plasma is incubated for 10 minutes with the substance at 37° C.
From the measurements obtained an EC50 is determined by plotting a graph, and indicates a 50% change in the "optical density" in terms of the inhibition of aggregation.

| SMILES | IC50 [1] | IC50 [2] | EC50 [3] |
| --- | --- | --- | --- |
| CC(C)(C)NC(=NC#N)NCCc1ccc(C(=CCCCC(=O)O)c2cccnc2)cc1 [U, E/Z-6-(4-(2-(2-cyano-3-tert.butyl-guanidino)ethyl)phenyl)-6-(3-pyridyl)hex-5-enoic acid] | 7 nM | 50 nM | 1200 nM |
| CC(C)(C)NC(=NC#N)Nc1cccc(/C(=C\CCCC(=O)O)c2cccnc2)c1 [B, 5E-6-(3-(2-cyano-3-tert.butyl-guanidino)phenyl)-6-(3-pyridyl)hex-5-enoic acid] |  | 11 nM | 500 nM |
| N#CN=C(Nc1cccc(/C(=C\CCCn2cnnn2)c2cccnc2)c1)NC1CCCC1 [Y, 4E-1-(5-(3-(2-cyano-3-cyclopentyl-guanidino)phenyl)-5-(3-pyridyl)-pent-4-enyl)tetrazole] | 250 nM | 21 nM | 1200 nM |
| N#CC(C#N)=C(Nc1cccc(/C(=C\CCCC(=O)O)c2cccnc2)c1)NC1CC1 [O, 5E-6-(3-(2,2-dicyano-1-cyclopropylaminoethyleneamino)phenyl)-6-(3-pyridyl)hex-5-enoic acid] | 65 nM | 62 nM | 40 nM |
| N#CC(C#N)=C(Nc1cccc(/C(=C\CCCC(=O)O)c2cccnc2)c1)NC1CCCC1 [M, 5E-6-(3-(2,2-dicyano-1-cyclopentylaminoethyleneamino)-phenyl)-6-(3-pyridyl)hex-5-enoic acid] | 33 nM | 1 nM | 50 nM |
| CCCCCNC(=NC#N)Nc1cccc(/C(=C\CCCC(=O)O)c2cccnc2)c1 [H, 5E-6-(3-(2-cyano-3-pentyl-guanidino)phenyl)-6-(3-pyridyl)hex-5-enoic acid] | 5 nM | 25 nM | 640 nM |
| CC(C)CNC(=NC#N)Nc1cccc(/C(=C\CCCC(=O)O)c2cccnc2)c1 [F, 5E-6-(3-(2-cyano-3-(2-methylpropyl)guanidino)phenyl)-6-(3-pyridyl)hex-5-enoic acid] | 30 nM | 7 nM | 350 nM |
| CC(C)CCNC(=NC#N)Nc1cccc(/C(=C\CCCC(=O)O)c2cccnc2)c1 [Example I, 5E-6-(3-(2-cyano-3-(3-methylbutyl)guanidino)phenyl)-6-(3-pyridyl)hex-5-enoic acid] | 3 nM | 27 nM | 690 nM |
| CC(C)CNC(Nc1cccc(/C(=C\CCCC(=O)O)c2cccnc2)c1)=C(C#N)C#N [J, 5E-6-(3-(2,2-dicyano-1-(2-methylpropylamino)ethyleneamino)phenyl)-6-(3-pyridyl)hex-5-enoic acid] | 30 nM | 2 nM | 120 nM |
| CC(C)(C)NC(Nc1cccc(/C(=C\CCCC(=O)O)c2cccnc2)c1)=C(C#N)C#N [Q, 5E-6-(3-(2,2-dicyano-1-tert.butylaminoethyleneamino)phenyl)-6-(3-pyridyl)hex-5-enoic acid] | 50 nM | 50 nM | 120 nM |
| N#CN=C(Nc1cccc(/C(=C\CCCC(=O)O)c2cccnc2)c1)N[C@@H]1C[C@H]2CC[C@@H]1C2 (relative stereo) [E, 5E-6-(3-(2-cyano-3-(exo-norborn-2-yl)guanidino)phenyl)-6-(3-pyridyl)hex-5-enoic acid] | 4 nM | 17 nM | 750 nM |
| CC(C)CNC(Nc1cccc(/C(=C\CCCC(=O)O)c2cccnc2)c1)=C(C#N)C(N)=O [X, 5E-6-(3-(2-carbamoyl-2-cyano-1-(2-methylpropylamino)-ethyleneamino)phenyl)-6-(3-pyridyl)hex-5-enoic acid] | 5 nM | 380 nM | 31000 nM |
| N#CN=C(Nc1cccc(/C(=C\CCCC(=O)O)c2cccnc2)c1)NC1CCCC1 [C, 5E-6-(3-(2-cyano-3-cyclopentyl-guanidino)phenyl)-6-(3-pyridyl)hex-5-enoicacid] | 3 nM | 30 nM | 530 nM |
| CC(C)NC(Nc1cccc(/C(=C\CCCC(=O)O)c2cccnc2)c1)=C(C#N)C#N [K, 5E-6-(3-(2,2-dicyano-1-isopropylaminoethyleneamino)phenyl)-6-(3-pyridyl)hex-5-enoic acid] | 45 nM | 2 nM | 20 nM |
| CC(C)(C)CNC(=C[N+](=O)[O-])Nc1cccc(/C(=C\CCCC(=O)O)c2cccnc2)c1 [T, 5E-6-(3-(1-neopentylamino-2-nitro-ethyleneamino)phenyl)-6-(3-pyridyl)hex-5-enoic acid] | 290 nM | 280 nM | 9500 nM |
| CC(C)(C)CNC(Nc1cccc(/C(=C\CCCC(=O)O)c2cccnc2)c1)=C(C#N)C#N [N, 5E-6-(3-(2,2-dicyano-1-neopentylaminoethyleneamino)phenyl)-6-(3-pyridyl)hex-5-enoic acid] | 44 nM | 3 nM | 620 nM |
| CCCNC(Nc1cccc(/C(=C\CCCC(=O)O)c2cccnc2)c1)=C(C#N)C#N [P, 5E-6-(3-(2,2-dicyano-1-propylamino-ethyleneamino)phenyl)-6-(3-pyridyl)hex-5-enoic acid] | 40 nM | 37 nM | 50 nM |
| CC(C)(C)NC(=NC#N)Nc1cccc(C(CCCCC(=O)O)c2cccnc2)c1 (stereo not drawn) [S, 6-(3-(2-cyano-3-tert.butyl-guanidino)phenyl)-6-(3-pyridyl)hexanoic acid] | 37 nM | 120 nM | 1100 nM |
| CC(C)(C)CNC(=NC#N)Nc1cccc(/C(=C\CCCC(=O)O)c2cccnc2)c1 [G, 5E-6-(3-(2-cyano-3-neopentyl-guanidino)phenyl)-6-(3-pyridyl)hex-5-enoic acid] | 14 nM | 22 nM | 260 nM |
| N#CN=C(Nc1ccc(/C(=C\CCCC(=O)O)c2cccnc2)cc1)NC1CCCCC1 [R, 5E-6-(4-(2-cyano-3-cyclohexyl-guanidino)phenyl)-6-(3-pyridyl)hex-5-enoic acid] | 180 nM | 1300 nM | 31000 nM |
| CC(C)NC(=NC#N)Nc1cccc(/C(=C\CCCC(=O)O)c2cccnc2)c1 [D, 5E-6-(3-(2-cyano-3-isopropyl-guanidino)phenyl)-6-(3-pyridyl)hex-5-enoic acid] | 24 nM | 18 nM |  |
| N#CN=C(Nc1cccc(/C(=C\CCCC(=O)O)c2cccnc2)c1)NC1CC1 [A, 5E-6-(3-(2-cyano-3-cyclopropyl-guanidino)phenyl)-6-(3-pyridyl)hex-5-enoicacid] | 380 nM | 17 nM |  |
